Results as given in patent publication US7786155B2, “Organic compounds” (Novartis AG, priority 2007, dated 2010).

How the values were obtained:
rats = settings: icv administration (Thorsell et al. Neurosci. Lett. 2002); cited from earlier work
[1] = target: T1, recombinant human NPY Y2 receptors (Homo sapiens, UniProt P49146); assay: Scintillation proximity [35S]GTPγS binding assay (inhibition of 0.5 nM NPY-stimulated [35S]GTPγS binding); assay type: biochemical; settings: 10 μM compound, membranes from CHO-C4 cells expressing recombinant human NPY Y2 receptors; for inhibition at 10 µM: read-out: [%] inhibiton at 10 μM
T1 construct: expressed in transfected cells; host or cells: CHO-C4 cells (membrane preparation)
T1 sequence (P49146 1-381): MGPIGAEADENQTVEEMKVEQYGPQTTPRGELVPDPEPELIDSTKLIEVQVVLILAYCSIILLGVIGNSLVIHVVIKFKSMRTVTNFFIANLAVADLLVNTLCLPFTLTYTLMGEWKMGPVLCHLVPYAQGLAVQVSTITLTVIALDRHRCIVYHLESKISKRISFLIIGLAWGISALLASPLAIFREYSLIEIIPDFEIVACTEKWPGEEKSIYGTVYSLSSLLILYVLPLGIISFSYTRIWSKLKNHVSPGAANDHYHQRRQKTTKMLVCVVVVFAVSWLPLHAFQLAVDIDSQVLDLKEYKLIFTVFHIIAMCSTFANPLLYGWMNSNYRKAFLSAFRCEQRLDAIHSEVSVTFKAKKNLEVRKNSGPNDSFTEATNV
Description: Preparation of Membranes: CHO-C4 cells expressing recombinant human NPY Y2 receptors were used to prepare membranes for the GTPγS assay. Cells were grown to 80-95% confluency on 15-cm (225 cm^2) tissue culture plates. After aspiration of the culture medium, cells were washed twice with 18 ml ice-cold phosphate-buffered saline (PBS), scraped off and suspended in 3 ml ice-cold PBS in pre-cooled centrifuge tubes. The dishes were rinsed with 2 ml ice-old PBS per dish and the washings were combined with the PBS cell suspension from above. Cells pooled from 5-7 dishes were centrifuged for 5 min at 10,000 rpm (12,000 g) in a Sorvall RC5B centrifuge using an SS34 rotor at […]. The cell pellet was resuspended in 5 ml ice-cold buffer (20 mM HEPES, 10 mM EDTA; pH 7.4) by vortexing (2-5 sec), homogenized using a Polytron (step 4 for 20-30 sec), and ice-cold buffer added to 25 ml. The suspension was centrifuged again for 20 min at 18,000 rpm (39,000 g) at 4° C. and the pellet resuspended in 5 ml ice-cold buffer (20 mM HEPES, 0.1 mM EDTA; pH 7.4) by vortexing (2-5 sec), homogenized with a Polytron (step 4 for 10 sec), and ice-cold buffer added to 25 ml. The suspension was centrifuged a third time for 20 min at 18,000 rpm (39,000 g) at 4° C. The pellet was resuspend in 1 ml ice-cold buffer (20 mM Hepes, 0.1 mM EDTA; pH 7.4) by vortexing (5-8 sec). Two to five resuspended pellets were combined and homogenized using a Polytron (step 4 for 15-25 sec). A small aliquot (20-50 μl) was removed for protein determination by the Coomassie Plus Protein Assay Reagent (Pierce) using BSA as standard. The membrane suspension was aliquoted in precooled (on dry ice) Eppendorf tubes (0.25-1 ml/tube affording approximately 0.5-2 mg of membrane protein/tube). The pellets were frozen and stored at −80° C.
Scintillation proximity [^35S]GTPγS binding assay: Frozen membranes from CHO-C4 cells expressing recombinant human NPY Y2 receptors (2 mg for four 96-well plates) were thawed on ice. Thawed membranes were pipetted into 10 ml of assay buffer (20 mM HEPES, 10 mM MgCl2, 100 mM NaCl, pH 7.4) and homogenized briefly using a Polytron. The final assay mixture was prepared in 96-well microtiter plates (Isoplate Wallac, Perkin Elmer). The composition of the assay mixtures in a final volume of 250 μl per well was as follows: 20 mM HEPES, 10 mM MgCl2, 100 mM NaCl, pH 7.4, 30 μM GDP, 1 mg/ml BSA (added fresh), 5 μg membrane protein, 1.5 mg Wheatgerm agglutinin SPA beads (Amersham), 0.45 nM [^35S]GTPγS (Amersham, SJ1308, 1000 Ci/mmol, stabilized solution), and the test compounds (agonists and/or antagonists) at the appropriate concentrations. The samples were incubated at room temperature for 90 min by shaking, after which the SPA beads were sedimented by centrifugation in an Eppendorf 5804 centrifuge at 2700 rpm for 10 min at room temperature. After 60 min the plates were counted in a TopCount (Canberra). Basal [^35S]GTPγS binding was measured in the absence of agonist (NPY). Non-specific binding was measured in the presence of excess (10 μM) unlabelled GTPγS (Sigma). Nonspecific binding never exceeded 10% of basal binding and was thus not subtracted from the experimental data. Antagonists were tested for the inhibition of 0.5 nM NPY-stimulated [^35S]GTPγS binding. Antagonist inhibition curves were analyzed by non-linear regression using GraphPad Prism software (Version 4.0, GraphPad Software Inc., CA, USA).
Antagonistic activity of compounds of the present invention was examined by the Scintillation proximity [^35S]GTPγS binding assay as described above (inhibition of 0.5 nM NPY-stimulated [^35S]GTPγS binding). The table below represents percentages of inhibition at a concentration of 10 μM.

Row | inhibition at 10 µM [1] | Structure (SMILES) | other results
1 | – | N=C(N)NCCC[C@H](NC(=O)CC1(CC(=O)N2CCN(C3c4ccccc4NC(=O)c4ccccc43)CC2)CCCC1)C(=O)NCCn1c(=O)n(-c2ccccc2)n(-c2ccccc2)c1=O (stereo partly shown) [BIIE0246] | ethanol self-administration (rats): dose dependently reduced ethanol self-administration
2 | – | CCCC1(c2ccc(F)cc2)N=C(C)N(CC(=O)c2ccc(NC(=O)C3CCOC3)cc2F)C1=O (stereo not shown) [Compound 14, Tetrahydro-furan-3-carboxylic acid (34-fluoro-4-{2-[4-(4-fluoro-phenyl)-2-methyl-5-oxo-propyl-4,5-dihydro-imidazol-1-yl]-acetyl}-phenyl)-amide] | [%] inhibiton at 10 μM [1]: 39%
3 | 35% | CC1=NC(c2ccccc2)(c2ccccc2)C(=O)N1CCc1ccc(NC(=O)CC(C)C)cc1 [Compound 5, 3-Methyl-N-{4-[2-(2-methyl-5-oxo-4,4-diphenyl-4,5-dihydro-imidazol-1-yl)-ethyl]-phenyl}-butyramide] | –
4 | 97% | CCCC1(c2ccccc2)N=C(C)N(CC(=O)c2ccc(NC(=O)Nc3c(C)noc3C)cc2F)C1=O (racemic) [Compound 10, (+/−)-1-(3,5-Dimethyl-isoxazol-4-yl)-3-{3-fluoro-4-[2-(2-methyl-5-oxo-4-phenyl-4-propyl-4,5-dihydro-imidazol-1-yl)-acetyl]-phenyl}-urea] | –
